The text below walks through data of patent publication US6906205B2, “Spiro and dispiro 1,2,4-trioxolane antimalarials” (Medicines for Malaria Venture MMV, priority 2002, dated 2005).

Molecules are shown by their SMILES. ≈ marks a conversion by molar mass, not a printed value.

In assay [1] the test system is P. falciparum K1 strain (Thailand resistant to chloroquine). Nature of the assay: semiautomated microdilution assay, [3H]-hypoxanthine incorporation, K1 strain. The format is cell-based, Plasmodium falciparum. The note with it: K1 strain, 72 h incubation. The gist of the method:
(§1)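 Asynchronous stock cultures → intraerythrocytic forms; semiautomated microdilution; IC50 by logit regression.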
On the technique in general: Dilution methods test growth across graded concentrations, often in twofold steps.

The test system of assay [2] is P. falciparum NF54 strain (sensitive to standard antimalarials). The assay can be described thus: semiautomated microdilution assay, [3H]-hypoxanthine incorporation, NF54 strain. In kind it is cell-based, Plasmodium falciparum. The note with it: NF54 strain, 72 h incubation. The method in brief: as §1
The test system of assay [3] is ANKA strain of P. berghei. The assay can be described thus: single dose STI in vivo screen in infected mice. Details: species or system Plasmodium berghei. To be noted: for Activity (%) po / Activity (%) sc / Activity (%) SSVpo: percent reduction in parasitemia day 3 post-infection, mice; for Activity (%) po / Survival (days) po: single 10 mg/kg po in 3% ethanol and 7% Tween 80; for Activity (%) sc / Survival (days) sc: single 10 mg/kg sc in 3% ethanol and 7% Tween 80; for Activity (%) SSVpo: single po dose in standard suspending vehicle (SSV); for Survival (days) po / Survival (days) sc / Survival (days) SSVpo: untreated control 5.6 ± 0.3; for Survival (days) SSVpo: single po dose in SSV. The gist of the method: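 Groups of 3-5 Moro SPF or NMRI mice infected with the ANKA strain of P. berghei received a single dose of trioxolane on day one post-infection. The compound was given in 3% ethanol and 7% Tween 80 or in SSV (0.5% w/v CMC, 0.5% v/v benzyl alcohol, 0.4% v/v Tween 80, 0.9% w/v sodium chloride in water). Antimalarial activity was scored as percent reduction in parasitemia on day three and as survival time versus untreated controls. Survival to day 30 counted as cure.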

Turning to `CCS(=O)(=O)CCN1CCC2(CC1)OOC1(O2)C2CC3CC(C2)CC1C3` (stereo not shown) [OZ200], the “IC50 (ng/ml) K1” value in assay [1] was 1.0 ng/mL (≈ 2.59 nM). Besides, the “IC50 (ng/ml) NF54” value in assay [2] was found to be 2.9 ng/mL (≈ 7.52 nM). Besides, in assay [3], the “Activity (%) po” value worked out at 81%, the “Activity (%) sc” value worked out at 92%, the “Activity (%) SSVpo” value is on record as 78% and the “Survival (days) po” value is recorded as 7.0 days. Further, in assay [3], the “Survival (days) sc” value is 8.0 days and the “Survival (days) SSVpo” value was 7.3 days.

Consider `Fc1ccc(NC2CCC3(CC2)OOC2(O3)C3CC4CC(C3)CC2C4)cc1` (stereo not shown) [OZ201], for which, in assay [1], the “IC50 (ng/ml) K1” value turned out to be 2.0 ng/mL (≈ 5.36 nM). For the same compound, in assay [2], the “IC50 (ng/ml) NF54” value is 3.1 ng/mL (≈ 8.3 nM). In addition, in assay [3], the “Activity (%) po” value was 100/100/100%, the “Activity (%) sc” value was 100/100/100%, the “Activity (%) SSVpo” value is listed as 100/100/100% and the “Survival (days) po” value is 13 days. For the same compound, in assay [3], the “Survival (days) sc” value is 25 days and the “Survival (days) SSVpo” value is 10.3 days.

For `CC(=O)OC(C)(C)C(=O)N[C@H]1CC[C@]2(CC1)OOC1(O2)C2CC3CC(C2)CC1C3` (stereo partly shown) [OZ202], the “IC50 (ng/ml) K1” value in assay [1] was found to be 6.0 ng/mL (≈ 14.7 nM). The “IC50 (ng/ml) NF54” value in assay [2] was determined as 7.9 ng/mL (≈ 19.4 nM). Besides, in assay [3], the “Activity (%) po” value is 79%, the “Activity (%) sc” value is recorded as 74%, the “Activity (%) SSVpo” value is reported as 51% and the “Survival (days) po” value is given as 7.0 days. For the same compound, in assay [3], the “Survival (days) sc” value was found to be 7.3 days and the “Survival (days) SSVpo” value is on record as 7.3 days.

Regarding `O=C(N1CCCC1)N1CCC2(CC1)OOC1(O2)C2CC3CC(C2)CC1C3` (stereo not shown) [OZ203], the “IC50 (ng/ml) K1” value in assay [1] came out at 3.9 ng/mL (≈ 10.8 nM). Besides, in assay [2], the “IC50 (ng/ml) NF54” value came out at 6.7 ng/mL (≈ 18.5 nM). Moreover, in assay [3], the “Activity (%) po” value was determined as 87%, the “Activity (%) sc” value amounted to 99.72%, the “Activity (%) SSVpo” value turned out to be 99.42% and the “Survival (days) po” value stood at 7.3 days. Further, in assay [3], the “Survival (days) sc” value was found to be 9.7 days and the “Survival (days) SSVpo” value was 8.7 days.

As to `COC(=O)c1ccc(C[C@H]2CC[C@]3(CC2)OOC2(O3)C3CC4CC(C3)CC2C4)cc1` (stereo partly shown) [OZ204], the “IC50 (ng/ml) K1” value in assay [1] was >10/>10 ng/ml. For the same compound, in assay [2], the “IC50 (ng/ml) NF54” value is given as >10/>10 ng/ml. Also, in assay [3], the “Activity (%) po” value is on record as 0/0/0%, the “Activity (%) sc” value is listed as 0/0/0%, the “Activity (%) SSVpo” value was 0/0/0% and the “Survival (days) po” value is 6.0 days. For the same compound, in assay [3], the “Survival (days) sc” value is 6.0 days and the “Survival (days) SSVpo” value is on record as 6.3 days.

`O=C1CNC(=O)N1C[C@H]1CC[C@]2(CC1)OOC1(O2)C2CC3CC(C2)CC1C3` (stereo partly shown) [OZ206]: the “IC50 (ng/ml) K1” value in assay [1] amounted to 1.0 ng/mL (≈ 2.66 nM). Also, the “IC50 (ng/ml) NF54” value in assay [2] is 2.7 ng/mL (≈ 7.17 nM). In addition, in assay [3], the “Activity (%) po” value is 93%, the “Activity (%) sc” value came out at 91%, the “Activity (%) SSVpo” value turned out to be 92% and the “Survival (days) po” value is 8.0 days. Besides, in assay [3], the “Survival (days) sc” value was determined as 9.7 days and the “Survival (days) SSVpo” value was determined as 8.7 days.

Consider `CCOC(=O)c1cccc([C@H]2CC[C@]3(CC2)OOC2(O3)C3CC4CC(C3)CC2C4)c1` (stereo partly shown) [OZ208], for which the “IC50 (ng/ml) K1” value in assay [1] is 6.0 ng/mL (≈ 14.5 nM). Also, the “IC50 (ng/ml) NF54” value in assay [2] was determined as 6.5 ng/mL (≈ 15.8 nM). In addition, in assay [3], the “Activity (%) po” value turned out to be 0%, the “Activity (%) sc” value is 10%, the “Activity (%) SSVpo” value was found to be 29% and the “Survival (days) po” value was 6.3 days. For the same compound, in assay [3], the “Survival (days) sc” value is 5.7 days and the “Survival (days) SSVpo” value is on record as 6.7 days.

Turning to `O=S(=O)(C[C@H]1CC[C@]2(CC1)OOC1(O2)C2CC3CC(C2)CC1C3)c1ccccc1` (stereo partly shown) [OZ210], in assay [1], the “IC50 (ng/ml) K1” value was 1.4 ng/mL (≈ 3.34 nM). Moreover, the “IC50 (ng/ml) NF54” value in assay [2] worked out at 1.6 ng/mL (≈ 3.82 nM). In assay [3], the “Activity (%) po” value is listed as 99.23%, the “Activity (%) sc” value is reported as 99.94%, the “Activity (%) SSVpo” value was determined as 77% and the “Survival (days) po” value is 9.3 days. In assay [3], the “Survival (days) sc” value was 10.3 days and the “Survival (days) SSVpo” value is 8.0 days.
